Test systems include HOP-62 NSCLC; UO-31 renal; KM12 colon; NCI-H522 lung; HT29 colon; SNB-75 CNS; MALME-3M melanoma; NCI-H460 lung; HL-60(TB) leukemia; UACC-62 melanoma.
What all share (assay): DTP human tumour cell line panel, 48 h

The structures appear in SMILES notation. Where “and” joins values, the source holds several entries; their conditions need not be identical. Equal entries are not always repeated.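 Exposure lasted 48 hours, with cells grown in 96-well plates and compounds tested at five concentrations. The concentration for 50% growth inhibition is given as GI50. TGI marks complete inhibition of growth.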 Some results are limits rather than exact numbers.

On to `CCCCS(=N)(=O)CC[C@H](N)C(=O)O` (stereo not given in full), for which the GI50 – broadly, the concentration that inhibits growth by half – was above 7620 µM in the assay with HOP-62 NSCLC; above 10000 µM in the assay on UO-31 renal; above 10000 µM with KM12 colon; above 20.5 µM with NCI-H522 lung; above 10000 µM in the assay with HT29 colon; above 10000 µM in the assay on SNB-75 CNS. Also, the GI50 in the assay on MALME-3M melanoma was above 8490 µM; with NCI-H460 lung, above 3940 µM; with HL-60(TB) leukemia it was 32.9 µM; in the assay with UACC-62 melanoma, above 8090 µM. For the same molecule, the TGI (usually the concentration giving total growth inhibition) with HOP-62 NSCLC was above 10000 µM; in the assay with UO-31 renal, 2700 µM and > 10000 µM; in the assay with KM12 colon, above 10000 µM; in the assay on NCI-H522 lung, 351 µM and 51.9 µM; in the assay on HT29 colon it was above 10000 µM; in the assay on SNB-75 CNS, 5000 µM and > 10000 µM. The TGI in the assay on MALME-3M melanoma was above 10000 µM; in the assay on NCI-H460 lung, 5000 µM and > 10000 µM; with HL-60(TB) leukemia it was 1270 µM and 224 µM; in the assay with UACC-62 melanoma it was above 10000 µM.
For the molecule `Cc1ccc(-n2c(C)nc3c2C(=O)c2ccccc2C3=O)cc1`, the TGI in the assay on HOP-62 NSCLC, in the assay with UO-31 renal, in the assay with KM12 colon, in the assay on NCI-H522 lung, in the assay on HT29 colon and in the assay with SNB-75 CNS was above 100 µM each time. The concentration for total growth inhibition (TGI) with MALME-3M melanoma is 51.5 µM; with NCI-H460 lung, 19.5 µM; in the assay with HL-60(TB) leukemia, above 100 µM; in the assay with UACC-62 melanoma, 56.6 µM.
On to `OC1CCC(Oc2cccc3cnc(Nc4ccc5nc[nH]c5c4)nc23)CC1` (stereo not given), for which the GI50 in the assay with HOP-62 NSCLC was 0.331 µM; in the assay with UO-31 renal, 0.227 µM; in the assay on KM12 colon it was 0.23 µM; in the assay on NCI-H522 lung, 1.13 µM; in the assay with HT29 colon, 0.437 µM; in the assay on SNB-75 CNS, 0.12 µM. For the same molecule, the GI50 is 1.03 µM in the assay with MALME-3M melanoma, 0.275 µM in the assay on NCI-H460 lung, 0.155 µM in the assay on HL-60(TB) leukemia and 0.573 µM in the assay with UACC-62 melanoma. The TGI in the assay with HOP-62 NSCLC came out at 14.9 µM; in the assay with UO-31 renal, 1.88 µM; in the assay with KM12 colon, 11.9 µM; with NCI-H522 lung, 5.3 µM; with HT29 colon it was 9.15 µM; with SNB-75 CNS, 2.21 µM. The TGI with MALME-3M melanoma stood at 5.01 µM; with NCI-H460 lung, 11.8 µM; in the assay with HL-60(TB) leukemia, 0.447 µM; in the assay with UACC-62 melanoma, 7.26 µM.
As to `O=C(N=Nc1c(O)[nH]c2ccccc12)c1ccccc1O`, the TGI in the assay with HOP-62 NSCLC was above 100 µM; in the assay on UO-31 renal, 79.9 µM; with KM12 colon, above 100 µM; in the assay on NCI-H522 lung it was above 100 µM; in the assay on HT29 colon, above 100 µM; with SNB-75 CNS it was 94.2 µM. Besides, the TGI with MALME-3M melanoma, with NCI-H460 lung, in the assay on HL-60(TB) leukemia and in the assay on UACC-62 melanoma was above 100 µM throughout.
Turning to `COc1ccc([N+](=O)[O-])c2c(NCC(O)CO)ccnc12` (stereo not given), the TGI in the assay with HOP-62 NSCLC was above 100 µM; in the assay with UO-31 renal it was above 100 µM; in the assay on KM12 colon, above 100 µM; in the assay with NCI-H522 lung it was 30.2 µM; in the assay with HT29 colon, above 100 µM; in the assay on SNB-75 CNS it was above 100 µM. In addition, the concentration for total growth inhibition (TGI) is 44.7 µM with MALME-3M melanoma, 52 µM with NCI-H460 lung, above 100 µM in the assay with HL-60(TB) leukemia and 58.9 µM with UACC-62 melanoma.
Consider `CC[C@@]1(OC(=O)CCC(=O)O)C(=O)OCc2c1cc1n(c2=O)Cc2cc3ccccc3nc2-1`, for which the TGI in the assay on HOP-62 NSCLC is 0.181 µM; with UO-31 renal, 0.493 µM; with KM12 colon, 3.2 µM; in the assay with NCI-H522 lung, 3.72 µM; with HT29 colon, above 33.6 µM; with SNB-75 CNS it was 2.54 µM. The TGI in the assay with MALME-3M melanoma worked out at 6.78 µM; in the assay with NCI-H460 lung, 0.592 µM; in the assay on HL-60(TB) leukemia, 0.449 µM; in the assay with UACC-62 melanoma, 0.255 µM.
Consider `Nc1ncnc2c1ncn2C1OC(C(=O)O)C(O)C1O` (stereo not given), for which the TGI in the assay on HOP-62 NSCLC, in the assay on UO-31 renal, in the assay on KM12 colon, in the assay on NCI-H522 lung, in the assay on HT29 colon and with SNB-75 CNS was above 100 µM each time. Moreover, the concentration for total growth inhibition (TGI) in the assay with MALME-3M melanoma, in the assay with NCI-H460 lung, in the assay with HL-60(TB) leukemia and in the assay with UACC-62 melanoma was above 100 µM each time.
Regarding `c1ccc(COc2ccc3[nH]c4c(ncc5[nH]c6ccccc6c54)c3c2)cc1`, the total growth inhibition concentration (TGI) was 30.5 µM with HOP-62 NSCLC; 32.8 µM in the assay with UO-31 renal; 29.5 µM in the assay with KM12 colon; 31.9 µM in the assay with NCI-H522 lung; 17.8 µM in the assay with HT29 colon; 25.5 µM with SNB-75 CNS. In addition, the total growth inhibition concentration (TGI) with MALME-3M melanoma was determined as 18.2 µM; in the assay with NCI-H460 lung it was 37 µM; with HL-60(TB) leukemia, 4.35 µM; with UACC-62 melanoma, 35.3 µM.
With `Cc1ccc2c(c1)sc(-c1ccc(N(C)C)cc1)[n+]2C`, the GI50 with HOP-62 NSCLC was 3.66 µM; in the assay on UO-31 renal, 18.9 µM; with KM12 colon, 0.397 µM; in the assay on NCI-H522 lung, 1.45 µM; with HT29 colon, 0.854 µM; in the assay on SNB-75 CNS it was 4.55 µM. Further, the GI50 in the assay with MALME-3M melanoma was 1.38 µM; in the assay on NCI-H460 lung, 1.18 µM; in the assay with HL-60(TB) leukemia, 0.273 µM; in the assay with UACC-62 melanoma, 2.07 µM. The TGI in the assay on HOP-62 NSCLC was above 41.4 µM; with UO-31 renal, above 100 µM; in the assay with KM12 colon, 14.6 µM; in the assay with NCI-H522 lung it was above 100 µM; in the assay with HT29 colon it was above 37.9 µM; with SNB-75 CNS, 34.8 µM. Moreover, the concentration for total growth inhibition (TGI) in the assay with MALME-3M melanoma was 15.4 µM; in the assay with NCI-H460 lung, 8.25 µM; in the assay on HL-60(TB) leukemia it was 10.5 µM; in the assay with UACC-62 melanoma, 15.5 µM.
Consider `Cn1cnc([N+](=O)[O-])c1Sc1ncnc2nc[nH]c12`, for which the GI50 in the assay on HOP-62 NSCLC is 0.882 µM and 5.79 µM; in the assay on UO-31 renal, 2.39 µM and 14.8 µM; in the assay with KM12 colon it was 4.25 µM and 10.8 µM; in the assay with NCI-H522 lung, 7.56 µM; in the assay on HT29 colon, 7.17 µM and 22.6 µM; in the assay with SNB-75 CNS it was 0.461 µM and 3.03 µM. Moreover, the GI50 with MALME-3M melanoma was 4.22 µM and 34.9 µM; in the assay with NCI-H460 lung, 6.58 µM and 16.5 µM; with HL-60(TB) leukemia, 11 µM and 16.9 µM; in the assay on UACC-62 melanoma it was 2.54 µM and 3.4 µM. Also, the TGI is above 100 µM in the assay on HOP-62 NSCLC; above 100 µM in the assay with UO-31 renal; above 100 µM in the assay with KM12 colon; above 100 µM with NCI-H522 lung; above 100 µM in the assay with HT29 colon; 17.1 µM and > 100 µM in the assay on SNB-75 CNS. For the same molecule, the TGI in the assay with MALME-3M melanoma is above 100 µM; in the assay on NCI-H460 lung, above 100 µM; in the assay with HL-60(TB) leukemia, 71 µM and > 64.7 µM; in the assay on UACC-62 melanoma it was above 100 µM.

The record behind these values is PubChem BioAssay (NCI).
